Assay results taken from publication PMC11436104 (Toxins, 2024).
“And” between values parts separate entries of the source, which are not always exact repeats. Identical values can stand only once. Like-named read-outs stand apart in the source and are kept apart here. *1 amine or outer side, *2 acyl side, *3 side chain or, on linkers, in order; H or OH if unused. Where a SMILES comes first, the peptide text is derived from it. Bridges are numbered along the chain shown (N, C = ends). [ ]: non-standard residue; d: D form. Adda = CO[C@@H](Cc1ccccc1)[C@@H](C)/C=C(C)/C=C/[C@H](N[*:1])[C@H](C)C(=O)[*:2]; dAsp(3S-Me) = C[C@H](C(=O)[*:3])[C@@H](N[*:1])C(=O)[*:2]; d(γGlu) = O=C(O)[C@@H](CCC(=O)[*:2])N[*:1]; hTyr = N[C@@H](CCc1ccc(O)cc1)C(=O)O; NMeA = CN[C@@H](C)C(=O)O; NMeDha = C=C(NC)C(=O)O; CO = O=C([*:1])[*:2]

Assays:
[1] = target: T1, Ser/Thr protein phosphatase type-1 (PP1; α isoform catalytic subunit) (Oryctolagus cuniculus, UniProt P62139); assay: Colorimetric protein phosphatase inhibition assay, p-nitrophenyl phosphate substrate; assay type: biochemical, rabbit
T1 construct: purchased Sigma 539493; host or cells: Escherichia coli
T1 sequence (P62139 whole entry, canonical isoform): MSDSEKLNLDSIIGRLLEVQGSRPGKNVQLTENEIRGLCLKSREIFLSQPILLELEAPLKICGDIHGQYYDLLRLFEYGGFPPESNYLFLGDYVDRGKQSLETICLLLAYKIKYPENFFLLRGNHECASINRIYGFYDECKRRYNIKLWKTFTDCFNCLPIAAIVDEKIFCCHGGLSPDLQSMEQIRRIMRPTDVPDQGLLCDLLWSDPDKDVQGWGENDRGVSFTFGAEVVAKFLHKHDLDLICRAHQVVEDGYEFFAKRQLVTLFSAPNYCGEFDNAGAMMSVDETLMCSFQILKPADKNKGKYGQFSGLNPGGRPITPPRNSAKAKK
Method: The inhibition of Ser/Thr protein phosphatases by the CCPs was measured using the colorimetric inhibition assay described by An and Carmichael and Gkelis et al., with some modifications. […] Enzymes, PP1 and PP2A, were diluted in reaction buffer #1 (50 mM Tris-HCl, 1.0 g/L bovine serum albumin, 1.0 mM MnCl2, 2.0 mM dithiothreitol, pH 7.4), and p-nitrophenyl phosphate was prepared in substrate buffer (0.1 M glycine, pH 10.4, 1 mM MgCl2, 1 mM ZnCl2). The assay was performed by the addition of each CCP (as a potential inhibitor; final concentrations, 0.1, 1, 10, and 100 µM) to the enzyme solution (i.e., PP1 and PP2A; final concentrations, 1 U/well and 0.01 U/well, respectively, where 1 U hydrolyzes 1 nmole of substrate per minute at pH 7.4 at 30 °C). After a few seconds of gentle shaking, the microplate was kept at room temperature for 5 min, followed by the addition of reaction buffer #2 (50 mM Tris-HCl, 0.5 g/L bovine serum albumin, 0.2 mM MnCl2, 20 mM MgCl2, and pH 8.1) for PP1, or reaction buffer #1 for PP2A. The reactions were started by the addition of p-nitrophenyl phosphate (final concentrations, 15 mM for PP1 and 10 mM for PP2A) and were carried out for 120 min at 37 °C. The hydrolysis of p-nitrophenyl phosphate to […] was recorded at 405 nm using a microplate reader (Tecan, Austria). The inhibition percentages (X) were calculated from the absorbances of the samples after incubation for 30 min, as according to Equation (1):X (%) = (APP − AS)/APP × 100,(1) where APP is the absorbance of the control sample (i.e., enzyme only), and AS is the absorbance of the test sample (i.e., enzyme with potential inhibitor). […] All measurements were repeated a minimum of three independent times, with five technical replicates per experiment. IC50 values are expressed as means ± SD.

[2] = test system: NHAs (normal human astrocytes); assay: MTT metabolic activity / cell viability; assay type: cell-based
Method: Normal human astrocytes (NHAs; Lonza, Walkersville, MD, USA) were grown and maintained in monolayer cultures in Dulbecco’s modified Eagle’s medium (DMEM; Sigma) supplemented with 10% fetal bovine serum (Euroclone, Pero, MI, Italy), 1% penicillin/streptomycin (Euroclone), 2 mM L-glutamine (Euroclone), and 20 mM Hepes (Invitrogen, Carlsbad, CA, USA). The U87-MG human glioblastoma cells (U87-MG cells; American Type Culture Collection, Manassas, VA, USA) were grown and maintained in monolayer cultures in DMEM supplemented with 10% fetal bovine serum, 1% penicillin/streptomycin, 4 mM L-glutamine, and 1% non-essential amino acids (Sigma).
Cell viability was determined using the 3-(4,5-dimethylthiazolyl-2)-2,5-diphenyltetrazolium bromide (MTT) assay, as according to Mosmann. This assay measures the conversion of MTT to its insoluble formazan by the dehydrogenase enzymes of the intact mitochondria of living cells. […]; Nunclon; Nunc, Naperville, IL, USA) and incubated for 16 h at 37 °C for attachment. The cell-growth medium was then replaced by fresh medium containing 0, 0.1, 1, and 10 µM of each CCP and incubated for an additional 24 h. These experiments were performed without using dimethylsulphoxide to best retain the original permeability of the cell membranes. Each experiment included the negative control of cell-growth medium with no additions. Following incubation (CO2 incubator), 20 μL 5 mg/mL MTT was added to each well. The plates were incubated for another 3 h. […] The amount of formazan, which is proportional to the metabolic activity of cells, was quantified spectrophotometrically at 570 nm (reference filter wavelength, 690 nm) using a microplate reader (Synergy MX; BioTek, Winooski, VT, USA). The metabolic activity of the cells was determined by comparing the optical densities of the CCP-treated cells with those of the negative control. Five replicates per concentration and three independent experiments were performed. Student’s t-tests were used to analyze the differences between the treated and control cells using Prism 5 software (GraphPad, Inc., La Jolla, CA, USA), where p < 0.05 was considered to be statistically significant.

GFAP = assay: Gene expression by quantitative real-time PCR in NHA; assay type: cell-based, human
Method: (§1) Cells were seeded onto 6-well plates, left to attach for 16 h, and treated with each non-hCCP separately (0.1–10 µM) and the hepatotoxic MC-LR (0.01–1 µM) for 24 h at 37 °C in the CO2 incubator. The total RNA from the cells (0.5–1.0 × 10^6 cells) was isolated using the TRIzol reagent (Invitrogen), and the cDNA was synthesized using 1 μg total RNA with cDNA high-capacity archive kits (Applied Biosystems, Foster City, CA, USA), according to the manufacturer’s protocol.
(§2) The expression levels of TUBA1A, ACTB, NES, and GFAP were quantified using quantitative real-time PCR (ABI 7900 HT Sequence Detection System; Applied Biosystems). TaqMan Universal PCR Master Mix and the following TaqMan Gene Expression Assays were used: TUBA1A: tubulin, alpha 1a, Hs00362387_m1; ACTB: actin, beta, Hs99999903_m1; NES, nestin, Hs00707120_s1; and GFAP, glial fibrillary acidic protein, and Hs00157674_m1 (all from Applied Biosystems). Amplification of a glyceraldehyde 3-phosphate dehydrogenase probe GAPDH (Human Endogenous Controls, Cat. # 4310884E; Applied Biosystems) was performed as an internal control. The conditions for the quantitative real-time PCR were as follows: 50 °C for 2 min, 95 °C for 10 min, 40 cycles of 95 °C for 15 s, and 60 °C for 1 min.
(§3) The data obtained from the TaqMan Gene Expression Assays were analyzed using the ΔΔCt algorithm. Two replicates per concentration and three independent experiments were performed. The statistical significance between the controls and the treated groups was determined using two-tailed Student’s t-tests, where p < 0.05 was statistically significant. In addition, the relative expression was normalized to the housekeeping gene GAPDH (relative quantification), with at least three sample concentrations used for each gene in both untreated cell lines.

TUBA1A = assay: as above; assay type: cell-based, human
Method: as §1, §2, §3

NES = assay: as above; assay type: cell-based, human
Method: as §1, §2, §3

ACTB = assay: as above; assay type: cell-based, human
Method: as §1, §2, §3

[3] = means ± SD, p-nitrophenyl phosphate 15 mM
[4] = NHA, 0.1 µM CCP, 24 h, relative to non-treated control
[5] = NHA, 1 µM CCP, 24 h, relative to non-treated control
[6] = NHA, 10 µM CCP, 24 h, relative to non-treated control

SMILES | IC50 [1, 3] [µM] | metabolic activity vs control ([2]; NHAs, up to 10 µM, 24 h) | Changes in gene expression of GFAP (GFAP; [4]) | Changes in gene expression of GFAP (GFAP; [5]) | Changes in gene expression of GFAP (GFAP; [6]) | Changes in gene expression of TUBA1A (TUBA1A; [4]) | Changes in gene expression of TUBA1A (TUBA1A; [5]) | Changes in gene expression of TUBA1A (TUBA1A; [6]) | Changes in gene expression of NES (NES; [4]) | Changes in gene expression of NES (NES; [5]) | Changes in gene expression of NES (NES; [6]) | Changes in gene expression of ACTB (ACTB; [4]) | Changes in gene expression of ACTB (ACTB; [5]) | Changes in gene expression of ACTB (ACTB; [6]) | further results
CC[C@H](C)[C@@H]1NC(=O)[C@H](Cc2ccc(OC)cc2)N(C)C(=O)[C@H]([C@@H](C)O)N2C(=O)[C@H](CC[C@H]2O)NC(=O)[C@H](CC(C)C)NC(=O)[C@@H](NC(=O)[C@H](CCC(N)=O)NC(=O)[C@H](CCc2ccc(O)cc2)NC(=O)[C@@H](O)CO)[C@@H](C)OC1=O | 132 ± 87.5 | no significant changes from the control | 1.051 ± 0.351 | 0.947 ± 0.101 | 1.119 ± 0.240 | 0.940 ± 0.162 | 0.824 ± 0.128 | 1.000 ± 0.141 | 1.262 ± 0.077 | 1.203 ± 0.196 | 1.370 ± 0.208 | 0.949 ± 0.140 | 0.988 ± 0.147 | 1.162 ± 0.251 | –
C=C1C(=O)N[C@H](C)C(=O)N[C@@H](CC(C)C)C(=O)N[C@@H](C(=O)O)[C@H](C)C(=O)N[C@@H](CCCNC(=N)N)C(=O)N[C@@H](/C=C/C(C)=C/[C@H](C)[C@H](Cc2ccccc2)OC)[C@H](C)C(=O)N[C@@H](C(=O)O)CCC(=O)N1C [MC-LR, Microcystin-LR, reference compound] (R[Adda][d(γGlu)][NMeDha][dA]L[dAsp(3S-Me)]-OH; lactam N-7) | – | – | – | – | – | – | – | – | – | – | – | – | – | – | IC50 [1]: 0.005 ± 0.0016 µM; metabolic activity vs control [2]: significantly decreased; cytotoxicity ([2]; 10 µM, read-out: cell viability lower than the control): ~20%; Changes in gene expression of GFAP (GFAP): 1.395 ± 0.312 and 1.453 ± 0.279; Changes in gene expression of TUBA1A (TUBA1A): 0.957 ± 0.046 and 0.941 ± 0.025; Changes in gene expression of NES (NES): 0.917 ± 0.067 and 1.266 ± 0.250; Changes in gene expression of ACTB (ACTB): 1.866 ± 0.844 and 1.071 ± 0.437
CC(C)[C@@H]1NC(=O)[C@H](NC(=O)N[C@@H](CCCNC(=N)N)C(=O)O)CCCCNC(=O)[C@H](Cc2ccccc2)NC(=O)[C@H](C)N(C)C(=O)[C@H](CCc2ccc(O)cc2)NC1=O [anabaenopeptin B] ({Arg-CO}-[dK]V[hTyr][NMeA]F; lactam 1-C) | 9.5 ± 0.9 | no significant changes from the control | 1.053 ± 0.124 | 1.434 ± 0.180 | 0.918 ± 0.204 | 1.082 ± 0.219 | 0.807 ± 0.100 | 0.895 ± 0.119 | 1.361 ± 0.291 | 1.221 ± 0.338 | 1.388 ± 0.313 | 1.175 ± 0.386 | 0.935 ± 0.157 | 0.934 ± 0.166 | –
CC[C@H](C)[C@@H]1NC(=O)[C@H](NC(=O)N[C@@H](CCCNC(=N)N)C(=O)O)CCCCNC(=O)[C@H](Cc2ccccc2)NC(=O)[C@H](C)N(C)C(=O)[C@H](CCc2ccc(O)cc2)NC1=O [anabaenopeptin F] ({Arg-CO}-[dK]I[hTyr][NMeA]F; lactam 1-C) | 28.2 ± 3.4 | no significant changes from the control | 1.326 ± 0.507 | 0.846 ± 0.211 | 1.167 ± 0.250 | 0.941 ± 0.186 | 1.144 ± 0.291 | 0.826 ± 0.036 | 1.345 ± 0.205 | 1.449 ± 0.171 | 1.381 ± 0.173 | 0.824 ± 0.227 | 1.121 ± 0.167 | 0.890 ± 0.184 | –
